According to ChEMBL document CHEMBL5512651, “Synthesis and biological evaluation of 4-imidazolidinone-containing compounds as potent inhibitors of the MDM2/p53 interaction” (Eur J Med Chem, 2024):
Activity calls are given as the source filed them. No cut-off for these calls is given here.

Key:
[1] = molecular target: Tumour suppressor p53/oncoprotein Mdm2 (Homo sapiens, UniProt Q00987); assay: Inhibition of MDM2/p53 (unknown origin) interaction by fluorescence polarization assay; format: protein assay
Chain of Tumour suppressor p53/oncoprotein Mdm2 (P04637 whole entry): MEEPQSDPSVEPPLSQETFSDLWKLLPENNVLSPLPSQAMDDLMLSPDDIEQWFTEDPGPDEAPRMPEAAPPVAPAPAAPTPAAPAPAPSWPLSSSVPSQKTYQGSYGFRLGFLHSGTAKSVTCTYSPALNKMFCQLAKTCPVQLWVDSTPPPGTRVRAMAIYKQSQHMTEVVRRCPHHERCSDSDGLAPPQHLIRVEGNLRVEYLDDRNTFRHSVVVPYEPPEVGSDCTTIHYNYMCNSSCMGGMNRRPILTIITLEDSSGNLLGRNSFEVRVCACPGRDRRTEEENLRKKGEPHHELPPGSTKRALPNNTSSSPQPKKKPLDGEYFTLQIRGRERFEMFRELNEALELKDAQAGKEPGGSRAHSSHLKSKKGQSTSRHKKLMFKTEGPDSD
Chain of Tumour suppressor p53/oncoprotein Mdm2 (Q00987 whole entry): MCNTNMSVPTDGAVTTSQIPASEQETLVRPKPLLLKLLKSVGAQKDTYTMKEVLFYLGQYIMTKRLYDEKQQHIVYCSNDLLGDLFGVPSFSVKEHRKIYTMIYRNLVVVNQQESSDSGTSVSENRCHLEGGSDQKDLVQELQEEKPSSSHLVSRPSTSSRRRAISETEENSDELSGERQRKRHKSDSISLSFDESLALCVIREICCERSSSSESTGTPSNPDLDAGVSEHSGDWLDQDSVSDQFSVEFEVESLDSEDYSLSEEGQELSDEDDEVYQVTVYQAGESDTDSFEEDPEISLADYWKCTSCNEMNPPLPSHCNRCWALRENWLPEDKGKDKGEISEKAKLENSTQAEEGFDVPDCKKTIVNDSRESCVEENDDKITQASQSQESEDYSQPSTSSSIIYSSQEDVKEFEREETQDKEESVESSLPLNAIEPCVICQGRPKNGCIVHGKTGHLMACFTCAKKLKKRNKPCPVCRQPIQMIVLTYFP

[2] = molecular target: Tumour suppressor protein p53/Mdm4 (Homo sapiens, UniProt O15151); assay: Inhibition of MDM4/p53 (unknown origin) interaction by fluorescence polarization assay; format: protein assay
Chain of Tumour suppressor protein p53/Mdm4 (P04637 whole entry): as the sequence (P04637 whole entry) above
Chain of Tumour suppressor protein p53/Mdm4 (O15151 whole entry): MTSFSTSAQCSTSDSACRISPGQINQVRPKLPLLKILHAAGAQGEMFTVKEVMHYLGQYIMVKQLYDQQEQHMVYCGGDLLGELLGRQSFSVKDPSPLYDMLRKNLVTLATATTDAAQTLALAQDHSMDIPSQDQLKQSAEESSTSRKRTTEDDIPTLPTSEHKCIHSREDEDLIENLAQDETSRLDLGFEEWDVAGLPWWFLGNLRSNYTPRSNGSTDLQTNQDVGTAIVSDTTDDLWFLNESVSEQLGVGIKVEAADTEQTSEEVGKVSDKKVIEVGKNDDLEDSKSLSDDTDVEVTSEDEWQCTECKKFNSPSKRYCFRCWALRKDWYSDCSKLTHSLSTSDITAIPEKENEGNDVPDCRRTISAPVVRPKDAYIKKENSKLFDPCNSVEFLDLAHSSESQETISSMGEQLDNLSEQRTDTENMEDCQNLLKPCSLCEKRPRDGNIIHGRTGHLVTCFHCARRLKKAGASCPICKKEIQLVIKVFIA

HCT-116 = assay: cells; settings: Homo sapiens, HCT-116, 96 h
MOLM-13 [3] = assay: cells; settings: Homo sapiens, MOLM-13, 48 h
[4] = molecular target: Cellular tumor antigen p53 (Homo sapiens) (UniProt P04637); assay: Activation of p53 pathway in human MOLM-13 cells assessed as increase in p53 level incubated for 24 hrs by Western blot analysis; format: cell-based; settings: filed as activator, dose 0.038-0.6 µM
Chain of Cellular tumor antigen p53 (Homo sapiens) (P04637 whole entry, looked up): as the sequence (P04637 whole entry) above

[5] = molecular target: Cellular tumor antigen p53 (Homo sapiens) (UniProt P04637); assay: Activation of p53 pathway in human MOLM-13 cells assessed as increase in p21 level incubated for 24 hrs by Western blot analysis; format: cell-based; settings: filed as activator, dose 0.038-0.6 µM
[6] = molecular target: Cellular tumor antigen p53 (Homo sapiens) (UniProt P04637); assay: Activation of p53 pathway in human MOLM-13 cells assessed as increase in MDM2 level incubated for 24 hrs by Western blot analysis; format: cell-based; settings: filed as activator, dose 0.038-0.6 µM
MOLM-13 [7] = assay: Induction of apoptosis in human MOLM-13 cells assessed as increase in PARP cleavage at 0.15 to 0.6 uM incubated for 24 hrs by Western blot analysis; format: functional, cell-based; settings: dose 0.15-0.6 µM
MOLM-13 [8] = assay: Induction of apoptosis in human MOLM-13 cells assessed as increase in caspase-3 level at 0.15 to 0.6 uM incubated for 24 hrs by Western blot analysis; format: functional, cell-based; settings: dose 0.15-0.6 µM
[9] = molecular target: Cellular tumor antigen p53 (Homo sapiens) (UniProt P04637); assay: Activation of p53 pathway in human MOLM-13 cells assessed as increase in MDM2 mRNA level incubated for 24 hrs by qPCR analysis; format: cell-based; settings: filed as activator, dose 0.038-0.6 µM
[10] = molecular target: Cellular tumor antigen p53 (Homo sapiens) (UniProt P04637); assay: Activation of p53 pathway in human MOLM-13 cells assessed as increase in p21 mRNA level incubated for 24 hrs by qPCR analysis; format: cell-based; settings: filed as activator, dose 0.038-0.6 µM
[11] = molecular target: Cellular tumor antigen p53 (Homo sapiens) (UniProt P04637); assay: Activation of p53 pathway in human MOLM-13 cells assessed as increase in PUMA mRNA level incubated for 24 hrs by qPCR analysis; format: cell-based; settings: filed as activator, dose 0.038-0.6 µM
[12] = molecular target: Cellular tumor antigen p53 (Homo sapiens) (UniProt P04637); assay: Activation of p53 pathway in human MOLM-13 cells assessed as increase in BAX mRNA level incubated for 24 hrs by qPCR analysis; format: cell-based; settings: filed as activator, dose 0.038-0.6 µM
[13] = Antiproliferative activity against HEK293 cells incubated for 4 days by CCK8 assay; format: toxicity, cell-based; settings: human
[14] = Selectivity index, ratio of IC50 for HEK293 cells to IC50 for human A549 cells; format: toxicity; settings: HEK293 cells versus A549 cells, read-out: Ratio IC50
[15] = Selectivity index, ratio of IC50 for HEK293 cells to IC50 for human HeLa cells; format: toxicity; settings: HEK293 cells versus HeLa cells, read-out: Ratio IC50
[16] = Selectivity index, ratio of IC50 for HEK293 cells to IC50 for human SW480 cells
A549 = assay: cells; settings: Homo sapiens, A549, 96 h
HeLa = assay: cells; settings: Homo sapiens, 96 h
SW480 = assay: cells; settings: Homo sapiens, SW480, 96 h
MOLM-13 [17] = assay: Induction of apoptosis in human MOLM-13 cells at 0.375 to 6 uM incubated for 24 hrs by Western blot analysis; format: functional, cell-based; settings: dose 0.375-6 µM

Row | Compound | Ki [1] | Ki [2] | IC50 (HCT-116) | IC50 (MOLM-13 [3]) | other results
1 | COc1cc(C(=O)O)ccc1N1CN2[C@@H](CC(C)(C)C)[C@@]3(CNc4cc(Cl)ccc43)[C@@H](c3cccc(F)c3F)[C@@H]2C1=O | 3.1 nM | > 27000 nM | 285 nM | 56.5 nM | –
2 | COc1cc(C(=O)O)ccc1N1CN2[C@@H](CC(C)(C)C)[C@@]3(CNc4cc(Cl)ccc43)[C@@H](c3ccc(F)cc3)[C@@H]2C1=O | 9.6 nM | > 27000 nM | 1300 nM | 529 nM | –
3 | COc1cc(C(=O)O)ccc1N1CN2[C@@H](CC(C)(C)C)[C@@]3(CNc4cc(Cl)ccc43)[C@@H](c3cccc(C(F)(F)F)c3)[C@@H]2C1=O | 50.5 nM | 5740 nM | 6860 nM | 6280 nM | –
4 | COc1cc(C(=O)O)ccc1N1CN2[C@@H](CC(C)(C)C)[C@@]3(CNc4cc(Cl)cnc43)[C@@H](c3cccc(Cl)c3)[C@@H]2C1=O | 1.2 nM | 3630 nM | 610 nM | 204 nM | –
5 | COc1cc(C(=O)O)ccc1N1CN2[C@@H](CC(C)(C)C)[C@@]3(CNc4cc(Cl)ccc43)[C@@H](c3ccccc3Cl)[C@@H]2C1=O | 32.8 nM | > 27000 nM | 9060 nM | 5490 nM | –
6 | COc1cc(C(=O)O)ccc1N1CN2[C@@H](CC(C)(C)C)[C@@]3(CNc4cc(Cl)ccc43)[C@@H](c3cccc(Cl)c3Cl)[C@@H]2C1=O | 7.6 nM | 5000 nM | 2560 nM | 1370 nM | –
7 | COc1cc(C(=O)O)ccc1N1CN2[C@@H](CC3(C)CCOCC3)[C@@]3(CNc4cc(Cl)ccc43)[C@@H](c3cccc(Cl)c3)[C@@H]2C1=O | 2.7 nM | 3370 nM | 562 nM | 139 nM | –
8 | COc1cccc([C@H]2[C@@H]3C(=O)N(c4ccc(C(=O)O)cc4OC)CN3[C@@H](CC(C)(C)C)[C@@]23CNc2cc(Cl)ccc23)c1 | 5.3 nM | > 27000 nM | 1420 nM | 944 nM | –
9 | COc1cc(C(=O)O)ccc1N1CN2[C@@H](CC(C)(C)C)[C@@]3(CNc4cc(Cl)ccc43)[C@@H](c3ccccc3F)[C@@H]2C1=O | 14.8 nM | > 27000 nM | 3900 nM | 1640 nM | –
10 | CCC(C)(C)C[C@@H]1N2CN(c3ccc(C(=O)O)cc3OC)C(=O)[C@H]2[C@H](c2cccc(Cl)c2)[C@]12CNc1cc(Cl)ccc12 | 1 nM | 1130 nM | 28.5 nM | 5.5 nM | Activity [4]: Dose-Dependent Effect; Activity [5]: Dose-Dependent Effect; Activity [6]: Dose-Dependent Effect; Activity (MOLM-13 [7]): Active; Activity (MOLM-13 [8]): Active; Activity [9]: Dose-Dependent Effect; Activity [10]: Dose-Dependent Effect; Activity [11]: Dose-Dependent Effect; Activity [12]: Dose-Dependent Effect; IC50 at 4 days [13]: 9530 nM; selectivity ratio [14]: 93; selectivity ratio [15]: 0.8; Ratio IC50 [16]: 1.9; IC50 (A549): 102 nM; IC50 (HeLa): 11800 nM; IC50 (SW480): 4920 nM
11 | COc1cc(NC(=O)[C@@H]2N[C@@H](CC(C)(C)C)[C@](C#N)(c3ccc(Cl)cc3F)[C@H]2c2cccc(Cl)c2F)ccc1C(=O)O | – | 1690 nM | 104 nM | 24.8 nM | IC50 at 4 days [13]: 9080 nM; IC50 (A549): 373 nM; IC50 (HeLa): 13200 nM; IC50 (SW480): 5460 nM
12 | CC(C)(C)C[C@@H]1N[C@@H](C(=O)N[C@H]2CC[C@H](O)CC2)[C@H](c2cccc(Cl)c2F)[C@]12C(=O)Nc1cc(Cl)ccc12 [SAR-405838] | – | 36800 nM | 227 nM | 115 nM | –
13 | COc1ccc(C2=N[C@@H](c3ccc(Cl)cc3)[C@@H](c3ccc(Cl)cc3)N2C(=O)N2CCNC(=O)C2)c(OC(C)C)c1 [NUTLIN-3] | – | – | – | 199 nM | Activity (MOLM-13 [17]): Active; IC50 at 4 days [13]: 26700 nM; IC50 (A549): 2050 nM; IC50 (HeLa): 31400 nM; IC50 (SW480): 16400 nM
14 | COc1cc(C(=O)O)ccc1N1CN2[C@@H](CC3(C)CCCCC3)[C@@]3(CNc4cc(Cl)ccc43)[C@@H](c3cccc(Cl)c3)[C@@H]2C1=O | 2.7 nM | > 27000 nM | 136 nM | 35.5 nM | –
15 | COc1cc(C(=O)O)ccc1N1CN2[C@@H](CC(C)(C)C)[C@@]3(CNc4ccc(Cl)cc43)[C@@H](c3ccc(Cl)cc3)[C@@H]2C1=O | > 27000 nM | > 27000 nM | 12800 nM | 8400 nM | –
16 | COc1cc(C(=O)O)ccc1N1CN2[C@@H](CC(C)(C)C)[C@@]3(CNc4cc(Cl)ccc43)[C@@H](c3cccc(F)c3)[C@@H]2C1=O | 1.2 nM | 3950 nM | 137 nM | 39.8 nM | –
17 | COc1cc(C(=O)O)ccc1N1CN2[C@@H](CC(C)(C)C)[C@@]3(CNc4cc(Cl)ccc43)[C@@H](c3cccc(C)c3)[C@@H]2C1=O | 5.2 nM | 2170 nM | 844 nM | 295 nM | –
18 | COc1cc(C(=O)O)ccc1N1CN2[C@@H](CC(C)(C)C)[C@@]3(CNc4ccc(Cl)cc43)[C@@H](c3ccccc3Cl)[C@@H]2C1=O | 1090 nM | > 27000 nM | 12700 nM | 7280 nM | –
19 | COc1cc(C(=O)O)ccc1N1CN2[C@@H](CC(C)(C)C)[C@@]3(CNc4cc(Cl)ccc43)[C@@H](c3ccc(Cl)cc3)[C@@H]2C1=O | 27.9 nM | > 27000 nM | 2580 nM | 2200 nM | –
20 | CCC(C)(CC)C[C@@H]1N2CN(c3ccc(C(=O)O)cc3OC)C(=O)[C@H]2[C@H](c2cccc(Cl)c2)[C@]12CNc1cc(Cl)ccc12 | 1.2 nM | 854 nM | 165 nM | 28.3 nM | –
21 | COc1cc(C(=O)O)ccc1N1CN2[C@@H](CC(C)(C)C)[C@@]3(CNc4ccc(Cl)cc43)[C@@H](c3cccc(Cl)c3)[C@@H]2C1=O | 67.4 nM | > 27000 nM | 8620 nM | 2580 nM | –
22 | COc1cc(C(=O)O)ccc1N1CN2[C@@H](CC(C)(C)C(C)C)[C@@]3(CNc4cc(Cl)ccc43)[C@@H](c3cccc(Cl)c3)[C@@H]2C1=O | 1.3 nM | 1120 nM | 88.7 nM | 33.1 nM | –
23 | COc1cc(C(=O)O)ccc1N1CN2[C@@H](CC3(C)CCC3)[C@@]3(CNc4cc(Cl)ccc43)[C@@H](c3cccc(Cl)c3)[C@@H]2C1=O | 1 nM | 1770 nM | 598 nM | 380 nM | –
24 | COc1cc(C(=O)O)ccc1N1CN2[C@@H](CC(C)(C)C)[C@@]3(CNc4ccc(Cl)cc43)[C@@H](c3cccc(Cl)c3Cl)[C@@H]2C1=O | 152 nM | > 27000 nM | 9740 nM | 7590 nM | –
25 | CCN1[C@@H](CC(C)(C)C)[C@@]2(CNc3cc(Cl)ccc32)[C@@H](c2cccc(Cl)c2)[C@@H]1C(=O)Nc1ccc(C(=O)O)cc1OC | – | – | 13.6 nM | 0.2 nM | –
26 | COc1cc(C(=O)O)ccc1N1CN2[C@@H](CC3(C)CCCC3)[C@@]3(CNc4cc(Cl)ccc43)[C@@H](c3cccc(Cl)c3)[C@@H]2C1=O | 0.6 nM | 734 nM | 121 nM | 17 nM | –
27 | COc1cc(C(=O)O)ccc1N1CN2[C@@H](CC(C)(C)C)[C@@]3(CNc4cc(Cl)ccc43)[C@@H](c3cccc(Cl)c3F)[C@@H]2C1=O | 3.1 nM | 3110 nM | 49.7 nM | 0.9 nM | –
